Data: patent publication US8822430B2 (Gilead Sciences, Inc., priority 2009, dated 2014)

Test system: HCV 1b RLuc cells (dicistronic genotype 1b Con1 replicon)
Experiment: Renilla luciferase (RLuc)-based HCV replicon reporter assay
Assay type: cell-based, HCV genotype 1b
Settings: Hepatitis C virus, 72 h, HCV 1b RLuc replicon, 72 hours; read-out: Activity (antiviral potency [EC50])
Outline: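 HCV 1b RLuc cells carrying a dicistronic genotype 1b Con1 replicon were treated with serially diluted compounds from 10 mM DMSO stocks. After 72 h, cells were lysed and Renilla luciferase activity measured. EC50 was obtained by non-linear regression.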

| SMILES | EC50 [nM] |
| --- | --- |
| COC(=O)N[C@H](C(=O)N1CCC[C@H]1c1ncc(-c2ccc(-c3ccc(-c4ccc(-c5cnc([C@@H]6CCCN6C(=O)[C@@H](NC(=O)OC)C(C)C)[nH]5)cc4)cc3)cc2)[nH]1)C(C)C | 0.024 |
| COC(=O)N[C@H](C(=O)N1CCC[C@H]1c1ncc(-c2ccc(-c3ccc(-c4cnc([C@@H]5CN(C(=O)c6ccccc6)CN5C(=O)[C@@H](NC(=O)OC)C(C)C)[nH]4)cc3)cc2)[nH]1)C(C)C | 0.0136 |
| COC(=O)N[C@H](C(=O)N1CCC[C@H]1c1ncc(-c2ccc(-c3ccc(-c4cnc([C@@H]5CN(CC(F)(F)F)CN5C(=O)[C@@H](NC(=O)OC)C(C)C)[nH]4)cc3)cc2)[nH]1)C(C)C | 0.0074 |
| COC(=O)N[C@H](C(=O)N1CCC[C@H]1c1ncc(-c2ccc(-c3ccc(-c4cnc([C@@H]5CCCN5C(=O)[C@@H](NC(=O)OC)C(C)C)[nH]4)s3)cc2)[nH]1)C(C)C | 0.0081 |
| COC(=O)N[C@H](C(=O)N1CCC[C@H]1c1nc(-c2cccc(Oc3ccc(-c4cnc([C@@H]5CCCN5C(=O)[C@@H](NC(=O)OC)C(C)C)[nH]4)cc3)c2)c[nH]1)C(C)C | 0.0539 |
| COC(=O)N[C@H](C(=O)N1CCC[C@H]1c1ncc(-c2ccc(C#Cc3ccc(-c4cnc([C@@H]5CCCN5C(=O)[C@@H](NC(=O)OC)C(C)C)[nH]4)cc3)cc2)[nH]1)C(C)C | 0.0126 |
| COC(=O)N[C@H](C(=O)N1CCC[C@H]1c1ncc(-c2ccc(N3CCN(c4ccc(-c5cnc([C@@H]6CCCN6C(=O)[C@@H](NC(=O)OC)C(C)C)[nH]5)cc4)CC3)cc2)[nH]1)C(C)C | 0.199 |
| COC(=O)N[C@H](C(=O)N1CCC[C@H]1c1ncc(-c2ccc3c(c2)COCc2cc(-c4cnc([C@@H]5CCCN5C(=O)[C@@H](NC(=O)OC)C(C)C)[nH]4)ccc2-3)[nH]1)C(C)C | 0.0327 |
| COC(=O)N[C@H](C(=O)N1CCC[C@H]1c1ncc(C#Cc2ccc(-c3cnc([C@@H]4CCCN4C(=O)[C@@H](NC(=O)OC)C(C)C)[nH]3)cc2)[nH]1)C(C)C | 0.139 |
| COC(=O)N[C@H](C(=O)N1CCC[C@H]1CNC(=O)c1ccc(-c2ccc(-c3cnc([C@@H]4CCCN4C(=O)[C@@H](NC(=O)OC)C(C)C)[nH]3)cc2)cc1)C(C)C | 0.0915 |
| COC(=O)N[C@H](C(=O)N1CCC[C@H]1c1nc2ccc(-c3ccc(-c4cnc([C@@H]5[C@H]6CC[C@H](C6)N5C(=O)[C@@H](NC(=O)OC)C(C)C)[nH]4)cc3)cc2[nH]1)C(C)C | 0.0553 |
| COC(=O)N[C@H](C(=O)N1CCC[C@H]1c1ncc(-c2ccc(-c3ccc(-c4cnc([C@@H]5CC[C@@H]6CC[C@H](NC(=O)OC(C)(C)C)C(=O)N65)[nH]4)cc3)cc2)[nH]1)C(C)C | 0.325 |
| COC(=O)N[C@H](C(=O)N1CCC[C@H]1c1ncc(-c2ccc(-c3ccc(-c4cnc(CN5CCC[C@H](N)C5=O)[nH]4)cc3)cc2)[nH]1)C(C)C | 4.8 |
| COC(=O)N[C@H](C(=O)N1CCC[C@H]1c1ncc(-c2ccc(-c3ccc(-c4cnc(CN5CCC[C@H](NC(=O)OC(C)(C)C)C5=O)[nH]4)cc3)cc2)[nH]1)C(C)C | 0.058 |
| COC(=O)N[C@H](C(=O)N1CCC[C@H]1c1nc2ccc(-c3ccc4nc([C@@H]5CCCN5C(=O)[C@@H](NC(=O)OC)C(C)C)[nH]c4c3)cc2[nH]1)C(C)C | 35.5 |
| CN[C@H](C(=O)N1CCC[C@H]1c1nc2ccc(-c3ccc(-c4ccc(-c5ccc6nc([C@@H]7CCCN7C(=O)[C@@H](NC(=O)OC)C(C)C)[nH]c6c5)cc4)cc3)cc2[nH]1)C(C)C | 0.0441 |
| COC(=O)N[C@H]1CCCN(Cc2ncc(-c3ccc(-c4ccc(-c5cnc([C@@H]6CCCN6C(=O)[C@@H](NC(=O)OC)C(C)C)[nH]5)cc4)cc3)[nH]2)C1=O | 0.147 |

| SMILES | EC50 [nM] |
| --- | --- |
| COC(=O)N[C@H]1CC[C@H]2CC[C@@H](c3ncc(-c4ccc(-c5ccc(-c6cnc([C@@H]7CCCN7C(=O)[C@@H](NC(=O)OC)C(C)C)[nH]6)cc5)cc4)[nH]3)N2C1=O | 0.156 |
| COC(=O)N[C@H](C(=O)N1CCC[C@H]1c1ncc(-c2ccc3cc(-c4ccc5nc([C@@H]6CCN6C(=O)[C@H](NC(=O)OC)c6ccccc6)[nH]c5c4)ccc3c2)[nH]1)C(C)C | 0.07 |
| COC(=O)N[C@H](C(=O)N1CC[C@H]1c1nc2ccc(-c3ccc(-c4ccc(-c5cnc([C@@H]6CCCN6C(=O)[C@H](NC(=O)OC)c6ccccc6)[nH]5)cc4)cc3)cc2[nH]1)C(C)C | 0.0195 |
| COC(=O)N[C@H](C(=O)N1CCC[C@H]1c1ncc(-c2ccc3cc(-c4ccc(-c5cnc([C@@H]6CC(=O)CN6C(=O)[C@@H](NC(=O)OC)C(C)C)[nH]5)cc4)ccc3c2)[nH]1)C(C)C | 0.0103 |
| COC(=O)N[C@H](C(=O)N1CCC[C@H]1c1ncc(-c2ccc(-c3ccc4cc(-c5cnc([C@@H]6CCCN6C(=O)[C@@H](NC(=O)OC)C(C)C)[nH]5)ccc4c3)cc2)[nH]1)c1ccc(F)cc1 | 0.043 |
| COC(=O)N[C@H](C(=O)N1CCC[C@H]1c1ncc(-c2ccc3cc(-c4ccc(-c5cnc(-c6cccn6S(=O)(=O)c6ccccc6)[nH]5)cc4)ccc3c2)[nH]1)C(C)C | 24.1 |
| COC(=O)N[C@H](C(=O)N1Cc2ccccc2C1c1ncc(-c2ccc(-c3ccc(-c4cnc([C@@H]5CCCN5C(=O)[C@@H](NC(=O)OC)C(C)C)[nH]4)cc3)cc2)[nH]1)C(C)C (stereo partly shown) | 0.0414 |
| COC(=O)N[C@H](C(=O)N1CCC[C@H]1c1ncc(-c2ccc3cc(-c4ccc(-c5cnc([C@@H]6CCCN6C(=O)[C@H](NC(=O)OC)c6cccs6)[nH]5)cc4)ccc3c2)[nH]1)C(C)C | 0.0262 |
| COC(=O)NC(C(=O)N1CCC[C@H]1c1ncc(-c2ccc3c(c2)COc2c-3ccc3cc(-c4cnc([C@@H]5CCCN5C(=O)C(NC(=O)OC)c5ccccc5)[nH]4)ccc23)[nH]1)c1ccccc1 (stereo partly shown) | 0.0275 |
| COC(=O)N[C@H](C(=O)N1CCC[C@H]1c1ncc(-c2ccc3cc(-c4ccc(-c5cnc([C@@H]6CCCN6C(=O)[C@H](OC(=O)N(C)C)c6ccccc6)[nH]5)cc4)ccc3c2)[nH]1)C(C)C | 0.0083 |
| COC(=O)N[C@H](C(=O)N1CCC[C@H]1c1ncc(-c2ccc3cc(-c4ccc(-c5cnc([C@@H]6CCCN6C(=O)[C@@H](OC(=O)N(C)C)c6ccccc6)[nH]5)cc4)ccc3c2)[nH]1)C(C)C | 0.0794 |
| COC(=O)NC(C(=O)N1CCC[C@H]1c1ncc(-c2cc3sc(-c4ccc(-c5cnc([C@@H]6CCCN6C(=O)[C@H](NC(=O)OC)c6ccccc6)[nH]5)cc4)cc3s2)[nH]1)C(C)C (stereo partly shown) | 0.0059 |
| COC(=O)N[C@H](C(=O)N1CCC[C@H]1c1ncc(-c2ccc3cc(-c4ccc(-c5cnc([C@@H]6CCCN6C(=O)[C@@H](NC(=O)OC)C(C)C)[nH]5)cc4)ccc3c2)[nH]1)c1ccccc1 | 0.0305 |
| COC(=O)N[C@H](C(=O)N1CCC[C@H]1c1ncc(-c2ccc(-c3ccc4cc(-c5cnc([C@@H]6CCCN6C(=O)[C@H](NC(=O)OC)c6ccccc6)[nH]5)ccc4c3)cc2)[nH]1)C(C)C | 0.0083 |
| COC(=O)NC(C(=O)N1CCC[C@H]1c1ncc(-c2ccc(-c3ccc4cc(-c5cnc([C@@H]6CCCN6C(=O)[C@@H](NC(=O)OC)C(C)C)[nH]5)ccc4c3)cc2)[nH]1)c1ccccc1C (stereo partly shown) | 0.0117 |
| COC(=O)N[C@H](C(=O)N1CCC[C@H]1c1ncc(-c2ccc3cc(-c4ccc(-c5cnc([C@@H]6CCCN6C(=O)[C@H](NC(=O)OC)c6ccccc6OC)[nH]5)cc4)ccc3c2)[nH]1)C(C)C | 0.0073 |
| COC(=O)N[C@H](C(=O)N1CCC[C@H]1c1ncc(-c2ccc(-c3ccc4cc(-c5cnc([C@@H]6C[C@H](C#N)CN6C(=O)[C@H](NC(=O)OC)c6ccccc6)[nH]5)ccc4c3)cc2)[nH]1)C(C)C | 0.0097 |
